{"source": "patent US20140315972A1", "about": "“RS)-2-(2-oxo-4-phenylpyrrolidin-1-yl)acetamide compound having modulatory activity with a commensurate effect, pharmaceutical substance (variants) and its application, composition (variants) thereof” (priority 2011, published 2014)", "key": {"rats [1]": {"tested_on": "rats", "experiment": "Forced swimming by Porsolt (behavioral despair), rat pups", "type": "in vivo", "conditions": "for Duration of immobilization vs control: listed as Phenotropil", "experimental": "The antidepressant effect of Phenotropil was studied in adult rats (185-218 g) and rat pups of 28-35 days of age (85-110 g). The test drugs were injected intraperitoneally in the first case and intragastrically in the second case 40 min before the tests. The methods of behavioral despair during forced swimming (Porsolt et al., 1978) and forced swimming with freely rotating wheels (Nomura et al., 1982) were used."}, "rats [2]": {"tested_on": "rats", "experiment": "Acute toxicity, single intragastric administration in immature rats", "type": "in vivo", "conditions": "for Dead/total number: rats 30-35 days", "experimental": "Tables 2, 2.1 and 2.2 present the results of acute toxicity studies of the Compounds with active substance content in at least white outbred male mice (body weight 18-24 g) and white outbred rats 30-35 days of age, of both sexes with a single dose. Calculation of toxic doses was made using the Wilcoxon and Litchfield method. Observations were made over 24 hours and 14 days after a single dose.\nLD50 in rat pups after intragastric administration was not found. Intragastric administration to rat pups of doses of more than 1000 mg/kg is technically impossible due to the small volume of the stomach (Table 2.2)."}, "[3]": {"tested_on": "GABAA benzodiazepine (BDZ) receptors (cortex)", "experiment": "Receptor binding ex vivo on rat brain membrane preparations", "conditions": "100 mg/kg single dose during scopolamine amnesia", "experimental": "(§1) Studying the mechanisms of action of the preventive and curative effect of Phenotropil (100 mg/kg) with single and subchronic administration (for 7 days) in terms of receptor binding to dopamine (D1, D2, D3 in the striatum), serotonin (5-HT2—frontal cortex) glutamate (NMDA in the hippocampus), the GABAA benzodiazepine (BDZ—cortex) and acetylcholine (nACh—cortex) receptors was performed on membrane preparations isolated from various competent rat brain structures. The methods are well known and described. Baseline studies in normal state and during the anticholinergic scopolamine induced CRPA amnesia served as the comparison groups (Table 7.4 and 7.5)."}, "[4]": {"tested_on": "serotonin 5-HT2 receptors (frontal cortex)", "experiment": "Receptor binding ex vivo on rat brain membrane preparations", "experimental": "as §1"}, "[5]": {"tested_on": "acetylcholine nACh receptors (cortex)", "experiment": "Receptor binding ex vivo on rat brain membrane preparations", "experimental": "as §1"}, "[6]": {"tested_on": "glutamate NMDA receptors (hippocampus)", "experiment": "Receptor binding ex vivo on rat brain membrane preparations", "experimental": "as §1"}, "rats [7]": {"tested_on": "rats", "experiment": "Carrageenan-induced paw edema", "type": "in vivo", "conditions": "100 mg/kg intragastrically 60 minutes before carrageenan", "experimental": "To identify and assess the anti-inflammatory action of Phenotropil, a standard technique was used; the carrageenan-induced paw edema in rats (Winter C. et al, 1962). Phenotropil at a dose of 100 mg/kg was administered intragastrically 60 minutes before carrageenan. Control animals received distilled water. Additionally, the topical application by method of formalin induced edema was investigated (subplantar administration of 0.1 ml of 2% formalin solution). Phenotropil for topical use was prepared (1:1) on the standard ointment base carrier at 100 mg/kg of body weight for each animal (150-220 g). The preparation was rubbed in the leg and a gauze patch was applied for 2 hours and 1 hour before the induction of inflammation."}, "rats [8]": {"tested_on": "rats", "experiment": "Hypoxia with hypercapnia in 7-day-old rats", "type": "in vivo"}, "cAMP": {"tested_on": "cAMP", "experiment": "cAMP level in blood plasma of mice", "type": "in vivo", "conditions": "for increase of cAMP level: mice, 60 minutes before test; for cAMP level: mouse blood plasma, one hour after a single injection"}, "women": {"tested_on": "women", "experiment": "Migraine attacks, intranasal drops", "type": "in vivo, human", "experimental": "Table 27 presents the results of studies in women (22-35 years) diagnosed with migraine without aura (simple migraine)—5 subjects, and migraine with aura (classic migraine)—5 subjects. Phenotropil as used as nasal drops (0.1% sterile solution), 10 drops three times a day for 7 days for the purpose of relief and prevention of migraine attacks at onset of prodromal phenomena and aura episodes. 5 drops of the solution were administered into each nostril. One drop of the 0.1% standard solution contained 0.05 mg of Phenotropil."}, "mice": {"tested_on": "mice", "experiment": "Average life duration (ALD) of mice", "type": "in vivo"}, "patients": {"tested_on": "patients", "experiment": "Amenorrhea in patients on neuroleptic therapy", "type": "in vivo, human", "conditions": "tablets 100 or 200 mg per day, 3 months", "experimental": "Investigation of the effect of Phenotropil in amenorrhea and functional dysmenorrhea was conducted on groups of patients aged 14-27 years. The first group (20-27 years) diagnosed with schizophrenia, was on the maintenance neuroleptic therapy and had menstrual cycle irregularities in the form of amenorrhea (for more than 6 months). Of those, 4 had amenorrhea of not established nature, observed also prior to the pronounced primary manifestation of mental disorder, 6 patients had amenorrhea that developed during treatment with neuroleptics. Phenotropil, tablets was administered in doses of 100 mg and 200 mg per day as part of a complex antipsychotic therapy as a corrector of psychogenic side effects of neuroleptics. The dose was selected based on the individual and clinical features of the patients. The duration of Phenotropil therapy was 3 months. Two groups (14-18 years) with functional dysmenorrhea and manifestations of pronounced spastic symptoms were studied. Duration of the Phenotropil monotherapy (50 and 100 mg per day) was one month followed by administration of the drug at one-week courses as a preventive agent. Patients with functional dysmenorrhea were investigated for cAMP level in comparison with the norm control group. The cAMP level was determined using the standard kits, by the method based on the competition with the labeled cyclic 3′,5-adenosine monophosphate in the level of binding with […]."}, "[9]": {"conditions": "5-HT2 frontal cortex, 100 mg/kg single dose during scopolamine amnesia"}, "[10]": {"conditions": "100 mg/kg after scopolamine-induced CRPA amnesia"}, "[11]": {"conditions": "nACh cortex, 100 mg/kg single dose during scopolamine amnesia"}, "[12]": {"conditions": "NMDA hippocampus, 100 mg/kg single dose during scopolamine amnesia"}, "[13]": {"conditions": "0.1% nasal drops, 10 drops three times a day 7 days"}, "[14]": {"conditions": "migraine attacks, humans, intranasally 0.5 mg × 3 times per day"}}, "note": "Where “and” joins values, the source holds several entries; their conditions need not be identical. Identical values can stand only once. Marks after values point to notes of the source that are not given here.", "data": [{"smiles": "NC(=O)CN1CC(c2ccccc2)CC1=O", "note": "(racemic) [Compound 1, (RS)-2-(2-oxo-4-phenylpyrrolidine-1-yl)acetamide]", "values": [{"measurement": "Duration of immobilization", "setting": "rats [1]; intragastric 100 mg/kg", "value": "86.35 ± 51.97", "unit": "s"}, {"measurement": "Duration of immobilization vs control", "setting": "rats [1]; intragastric 100 mg/kg", "value": "−79.8% and −79.77 * %"}, {"measurement": "Duration of immobilization", "setting": "rats [1]; intragastric 200 mg/kg", "value": "118.72 ± 80.04", "unit": "s"}, {"measurement": "Duration of immobilization vs control", "setting": "rats [1]; intragastric 200 mg/kg", "value": "−72.2% and −72.19 * %"}, {"measurement": "Dead/total number", "setting": "rats [2]; single intragastric 800 mg/kg", "value": "0/10"}, {"measurement": "Dead/total number", "setting": "rats [2]; single intragastric 1000 mg/kg", "value": "0/10"}, {"measurement": "% of dead rat pups", "setting": "rats [2]; single intragastric 800 mg/kg", "value": 0, "unit": "%"}, {"measurement": "% of dead rat pups", "setting": "rats [2]; single intragastric 1000 mg/kg", "value": 0, "unit": "%"}, {"measurement": "Bmax change vs saline CRPA control", "setting": "[3]", "value": "+4%"}, {"measurement": "Kd change vs saline CRPA control", "setting": "[3]", "value": "−3.8", "unit": "%"}, {"measurement": "Kd change vs scopolamine amnesia group", "setting": "[3]", "value": "+9.3%"}, {"measurement": "Bmax, percentage relative to control", "setting": "[4]; 5-HT2, subchronic 100 mg/kg/day, no pathology", "value": "−18", "unit": "%*"}, {"measurement": "Bmax change vs saline CRPA control", "setting": "[4]; [9]", "value": "+31%"}, {"measurement": "Kd change vs saline CRPA control", "setting": "[4]; [9]", "value": "+19.4%"}, {"measurement": "Kd change vs scopolamine amnesia group", "setting": "[4]; [9]", "value": "+3.0%"}, {"measurement": "decrease of density (Bmax) of 5-HT2 receptors vs control", "setting": "[4]; subchronic 100 mg/kg, no pathology", "value": 18, "unit": "%"}, {"measurement": "decrease in density of nACh receptors vs scopolamine amnesia", "setting": "[5]; [10]", "value": 46, "unit": "%"}, {"measurement": "Bmax change vs saline CRPA control", "setting": "[5]; [11]", "value": "+6%"}, {"measurement": "Bmax change vs scopolamine amnesia group", "setting": "[5]; [11]", "value": "−46", "unit": "%"}, {"measurement": "Kd change vs saline CRPA control", "setting": "[5]; [11]", "value": "+39.5%"}, {"measurement": "Kd change vs scopolamine amnesia group", "setting": "[5]; [11]", "value": "+14.4%"}, {"measurement": "decrease in density of NMDA receptors vs scopolamine amnesia", "setting": "[6]; [10]", "value": 12, "unit": "%"}, {"measurement": "Bmax change vs saline CRPA control", "setting": "[6]; [12]", "value": "+69%"}, {"measurement": "Bmax change vs scopolamine amnesia group", "setting": "[6]; [12]", "value": "−12", "unit": "%"}, {"measurement": "Kd change vs saline CRPA control", "setting": "[6]; [12]", "value": "+18.4%"}, {"measurement": "Kd change vs scopolamine amnesia group", "setting": "[6]; [12]", "value": "+9.0%"}, {"measurement": "shortening of inflammation vs control", "setting": "rats [7]", "value": 52.3, "unit": "%"}, {"measurement": "Duration of life of animals", "setting": "rats [8]; 50 mg/kg", "value": "83.3 ± 7.9", "unit": "min"}, {"measurement": "Duration of life of animals", "setting": "rats [8]; 100 mg/kg", "value": "123.2 ± 2.9", "unit": "min"}, {"measurement": "increase of cAMP level", "setting": "cAMP; single i.p. 10 mg/kg", "value": 21, "unit": "%"}, {"measurement": "increase of cAMP level", "setting": "cAMP; single i.p. 50 mg/kg", "value": 65.5, "unit": "%"}, {"measurement": "increase of cAMP level", "setting": "cAMP; single i.p. 100 mg/kg", "value": 96.3, "unit": "%"}, {"measurement": "cAMP level", "setting": "cAMP; 10 mg/kg", "value": "4.56 ± 0.67", "unit": "pikomol/50 μl plasma"}, {"measurement": "cAMP level", "setting": "cAMP; 50 mg/kg", "value": "6.24 ± 0.81", "unit": "pikomol/50 μl plasma"}, {"measurement": "cAMP level", "setting": "cAMP; 100 mg/kg", "value": "7.40 ± 0.62", "unit": "pikomol/50 μl plasma"}, {"measurement": "patients (of 10) with headaches and their duration decreased significantly", "setting": "women; [13]", "value": 3}, {"measurement": "patients (of 10) with no effect", "setting": "women; [13]", "value": 2}, {"measurement": "patients (of 10) with prodrome and aura completely stopped without headache attacks", "setting": "women; [13]", "value": 5}, {"measurement": "Efficacy: % of subjects with no effect", "setting": "women; [14]", "value": 20, "unit": "%"}, {"measurement": "Efficacy: % of subjects with partial effect", "setting": "women; [14]", "value": 30, "unit": "%"}, {"measurement": "Efficacy: subjects with 100% efficacy", "setting": "women; [14]", "value": "5/10 - 100% efficacy ^"}, {"measurement": "Efficacy: subjects with no effect", "setting": "women; [14]", "value": "2/10"}, {"measurement": "Efficacy: subjects with partial effect", "setting": "women; [14]", "value": "3/10"}, {"measurement": "ALD increase vs placebo-treated control", "setting": "mice; 50 mg/kg", "value": 15.3, "unit": "%"}, {"measurement": "ALD increase vs placebo-treated control", "setting": "mice; 100 mg/kg", "value": 29.3, "unit": "%"}, {"measurement": "ALD increase vs placebo-treated control", "setting": "mice; 200 mg/kg", "value": 12.5, "unit": "%"}, {"measurement": "ALD increase vs placebo-treated control", "setting": "mice; 300 mg/kg", "value": 19.6, "unit": "%"}, {"measurement": "increase in life duration", "setting": "mice; doses below 50.0 mg/kg", "value": "8.0-10.0%"}, {"measurement": "patients restored, amenorrhea of unknown nature", "setting": "patients", "value": 30.0, "unit": "%"}, {"measurement": "patients restored, amenorrhea on antipsychotic therapy", "setting": "patients", "value": 40.0, "unit": "%"}, {"measurement": "patients with restored menstruations and menstrual cycle", "setting": "patients; n=10", "value": 70, "unit": "%"}]}]}
